The test system of one assay is E2-CAR-T cells. Description: 3H-EC17 radioligand binding to effector cells. Also noted: species or system human. Conditions: ^3H-EC17, E2-CAR-T cells ~100% EGFRt+, 1:1 CD8/CD4, 1.5 h room temperature, estimated from specific binding curve. Here is the method: The bispecific affinities of EC17 CAM were assessed using ^3H-EC17 in cell-based radioligand binding assays. For binding to FR+ targets, KB and CHO-β cells were pre-seeded overnight in 24-well tissue culture plates and incubated with 0.1, 0.5, 1, 5, 10, 20, and 40 nM of ^3H-EC17 in FFRPMI for 2 h at 37°C. Afterwards, the cells were rinsed with phosphate-buffered saline (PBS, pH 7.4) and lysed with 1% sodium dodecyl sulfate. The whole cell lysates were quantitated for the level of radioactivity and cellular protein content by standard Pierce BCA protein assay. The number of ^3H-EC17 molecules bound per cell was calculated to determine the dissociation constants (Kd) for FRα (KB) and FRβ (CHO-β), respectively. […] Afterwards, the cells were washed 4x with PBS, lysed with 0.1% Triton X-100 plus 0.1 N NaOH and counted in a scintillation counter. The specific binding curve was generated by subtracting non-specific binding (^3H-EC17 plus “cold” EC17) from total binding (^3H-EC17) at each concentration of the radioligand.

In the next assay the test system is HOS-FRα. Description: EC17 dose response, co-culture with E2-CAR-T cells, LDH specific lysis. Type of assay: cell-based, human. An excerpt: (§1) To investigate EC17 CAM action in vitro, pure EGFRt-sorted CD4 and CD8 CAR-T cells were admixed in a 1:1 ratio and matching mock-transduced T cells were included per experimental design. Other than FR+/- isogenic pairs of AML and osteosarcoma cell lines, we added KB, MDA-MB-231 and OV90 to represent different histological tumor types and FR expression levels. All FR+ target cell lines were subjected to a direct ^3H-FA binding assay to quantitate the number of FR molecules bound/cell ([38]). Prior to co-culture experiments, cryopreserved CAR-T cells were allowed to recover for 2–3 days in T cell culture medium. All effector and target cells were pre-washed with FFRPMI to remove any exogenous FA that could compete against EC17. Short-term co-culture studies of ≤ 3 days were carried out in FFRPMI without adding any exogenous cytokines.
(§2) For an EC17 dose response study, FR+ cancer cell lines (KB, MDA-MB-231, HOS-FRα, THP1-FRβ, OV90) were co-cultured with EGFRt-sorted E2-CAR-T cells at an effector-to-target (E/T) ratio of 1:1 in the presence of EC17 ranging from 0.1 pM to 100 μM in 10-fold increments. After 24 h of co-culture, supernatants were harvested to determine target cell killing by Promega's CytoTox 96® LDH assay kit and expressed as specific lysis (%) normalized to basal levels in the absence of EC17. To study the kinetics of T cell activation and FR correlation in vitro, co-cultures were carried out in FR+/- cell lines at varying E/T ratios (1:27, 1:9, 1:3, 1:1, 3:1) in the continuous presence of 10 nM EC17. The kinetics of target cell killing (i.e., % specific lysis) were quantified after 16 and 48 h of co-culture and normalized to basal levels in the absence of EC17 at defined E/T ratios. Meanwhile, a portion of the supernatants was taken after 44 h of co-culture for measurement of IFNγ, IL-2, and TNFα. The LEGENDplex™ human Th1 cytokine panel (BioLegend, San Diego, CA) was used to determine CAR-T cell derived cytokines.

The test system of another assay is KB. The assay is described as above. The class given is cell-based, human. Conditions: E/T 1:1, 24 h co-culture.
Source text: as §1, §2

Another assay has as its system MDA-MB-231. The description is as above. The class given is cell-based, human. Conditions: MDA-MB-231, E/T 1:1, 24 h co-culture.
Source text: as §1, §2

The subject of another assay is THP1-FRβ. Described as above. The class given is cell-based, human.
Source text: as §1, §2

Another assay relates to HOS-143b. Description: Kinetics of specific lysis at varying E/T ratios, 10 nM EC17. Type of assay: cell-based, human. Conditions: 10 nM EC17, E2-CAR-T cells, E/T 1:27 to 3:1, 16 and 48 h. The protocol:
as §2

Setting [1] is: Homo sapiens, EC17, E/T 1:1, 24 h co-culture, curve fitted up to 100 nM.
The mark [2] stands for this setting: Homo sapiens, curve fitted up to 100 nM.

The values that follow come from paper PMC6433934, “Preclinical Evaluation of Bispecific Adaptor Molecule Controlled Folate Receptor CAR-T Cell Therapy With Special Focus on Pediatric Malignancies” (Frontiers in Oncology, 2019).

By Kd is commonly meant a measure of binding affinity in units of concentration. Usually EC50 stands for the concentration needed to bring the measured effect to its halfway point. High values mean weaker potency, low ones greater potency. For the compound `Nc1nc2ncc(CNc3ccc(C(=O)NC(CCC(=O)NCCNC(=S)Nc4ccc(-c5c6ccc(=O)cc-6oc6cc(O)ccc56)c(C(=O)O)c4)C(=O)O)cc3)nc2c(=O)[nH]1` (stereo not shown) [EC17, FA-(γ)-ethylenediamine-FITC], the Kd in the assay on E2-CAR-T cells was about 142 nM. Moreover, the Max. lysis stood at 18% in the assay with HOS-FRα (E/T 1:1, 24 h co-culture); 11% in the assay on KB; 45% in the assay on MDA-MB-231; 27% in the assay on THP1-FRβ (E/T 1:1, 24 h co-culture). For the same compound, the EC50 with HOS-FRα (setting [1]) turned out to be 0.03 nM; in the assay on KB (setting [2]) it was 0.0053 nM; in the assay on MDA-MB-231 (setting [2]) it was 0.0045 nM; in the assay with THP1-FRβ (setting [1]), 0.015 nM. Moreover, in the assay on HOS-143b, the “specific lysis of FR-negative cells” value was “essentially unharmed”.
